What was measured:
[1] = system: ADH in human serum (Class I); assay: Fluorometric measurement of serum ADH activity with substrate IA; assay type: biochemical; details: between-run repeatability, 2 minutes reaction, n=5
Procedure: (§1) All reaction mixtures (3 ml total volume) were prepared directly in 1 cm pathlength, 4 ml fluorometric cuvettes by adding 150 μl of the 300 μM substrate solution (e.g substrate IA or IIA) 100 μl of the 1 mM NADH solution (prepared as in part 5 above) and 2.69 ml of assay buffer (0.1M phosphate, pH 7.6). After thermal equilibration (25° C.) for 5 minutes, 60 μl of isozyme sample (either serum or purified ADH isozymes) was added to the cuvette.
The linear increase of fluorescence was then recorded for 1-10 minutes, until 0.03-1 μM of substrate was consumed. Larger substrate consumption was not found to be desirable (described in subpart (c) below). […] The added product fluorescence intensity was then measured Fluorescence measurements were optimized for samples with low activity (<1 nM/minute). […] Rates measured in the presence of the 0.2 mM ADH inhibitors. […]
The rates of aldehyde reduction, determined as initial velocities (V) and expressed in units of nM/minute, were calculated according to: [formula] where the quantity in parentheses is the slope of the linear fluorescence increase calculated from the quantities Ft and FO, the fluorescence at time t and at the beginning of the reaction, respectively. Cst is the concentration of the product used as a standard added to the cuvette after the initial rate had been measured and Fst is the fluorescence intensity of the added product […]

β1 γ2 ADH (Class I) = biological target: T1, β1 γ2 ADH (Class I) (Homo sapiens, UniProt P00325+P00326, I350V/R272Q); assay: Kinetics of enzymatic reduction of methoxynaphthaldehydes by β1γ2 ADH; assay type: biochemical; details: rate relative to ethanol oxidation at pH 10.0
T1 construct: beta1 (ADH1B*1) and gamma2 (ADH1C*2) alleles
T1 sequence (P00325 2-375, stated change not applied): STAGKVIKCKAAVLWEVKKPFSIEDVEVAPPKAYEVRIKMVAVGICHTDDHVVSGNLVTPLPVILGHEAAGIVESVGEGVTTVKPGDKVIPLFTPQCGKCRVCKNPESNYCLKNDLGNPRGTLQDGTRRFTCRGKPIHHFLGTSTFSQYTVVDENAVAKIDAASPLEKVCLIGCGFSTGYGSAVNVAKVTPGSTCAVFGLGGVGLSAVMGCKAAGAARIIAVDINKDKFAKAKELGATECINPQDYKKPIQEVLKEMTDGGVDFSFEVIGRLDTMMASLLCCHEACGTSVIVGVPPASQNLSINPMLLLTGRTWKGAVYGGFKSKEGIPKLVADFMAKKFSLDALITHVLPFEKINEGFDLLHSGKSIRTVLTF
T1 sequence (P00326 2-375 R272Q/I350V): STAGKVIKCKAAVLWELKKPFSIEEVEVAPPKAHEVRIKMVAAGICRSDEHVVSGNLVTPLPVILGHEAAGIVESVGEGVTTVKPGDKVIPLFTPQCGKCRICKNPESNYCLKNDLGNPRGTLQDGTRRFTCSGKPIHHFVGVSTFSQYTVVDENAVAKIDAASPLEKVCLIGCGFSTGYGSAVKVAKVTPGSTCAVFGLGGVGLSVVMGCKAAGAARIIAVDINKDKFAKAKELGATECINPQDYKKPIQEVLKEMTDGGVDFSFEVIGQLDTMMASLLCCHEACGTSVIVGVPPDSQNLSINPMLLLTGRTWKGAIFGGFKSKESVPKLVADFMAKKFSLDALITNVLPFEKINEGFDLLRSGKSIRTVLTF
Procedure: Standard assays for ethanol oxidation activity (Dalziel, 1957, Acta Chem Scand 11:1706-23) were carried out on a Cary 219 spectrophotometer interfaced with an Apple IIe microcomputer, using software provided by Varian Associates. The reaction mixture contained 2.5 mM NAD^+ in 0.1M glycine-NaOH buffer. pH 10.0, and 33 mM or 0.2M ethanol for Class I and Class II ADH, respectively.
Aldehyde reduction was monitored by following the decrease of absorption at 340 nm in 40 mM Mes buffer, pH 7.1. in the presence of saturating NADH, 50 μM for Class I and 100 μM for Class II. […] Initial reaction rates were measured and kinetic parameters determined by conventional procedures as described by Segel, 1975, Enzyme Kinetics, pp. 591-597, Wiley, N.Y. […]
(§2) The linear increase of fluorescence was then recorded for 1-10 minutes, until 0.03-1 μM of substrate was consumed. […] The added product fluorescence intensity was then measured Fluorescence measurements were optimized for samples with low activity (<1 nM/minute). […] Rates measured in the presence of the 0.2 mM ADH inhibitors. […]
Additionally the reaction rates for these isozymes were compared to those measured by the standard assay for ethanol oxidation (see part 7 above) at pH 10.0 the optimum for oxidation of ethanol by ADH. […]

Class I ADH = assay: Kinetics of enzymatic reduction of methoxynaphthaldehydes by Class I ADH isozymes; assay type: biochemical, human; details: for kcat / Km: Table IV; for kcat: average for Class I isozymes except ββ forms; for Km: range over Class I isozymes
Procedure: (§3) Aldehyde reduction was monitored by following the decrease of absorption at 340 nm in 40 mM Mes buffer, pH 7.1. in the presence of saturating NADH, 50 μM for Class I and 100 μM for Class II. […] Initial reaction rates were measured and kinetic parameters determined by conventional procedures as described by Segel, 1975, Enzyme Kinetics, pp. 591-597, Wiley, N.Y.
as §1
(§4) The linear increase of fluorescence was then recorded for 1-10 minutes, until 0.03-1 μM of substrate was consumed. Larger substrate consumption was not found to be desirable (described in subpart (c) below). After this period the instrument sensitivity setting was reduced 10-30 fold, the signal compensated once again by zero suppression (see part 6 above), and 60 μl of 200-400 μM product (e.g., product IB or IIB) was added to provide an internal standard. The added product fluorescence intensity was then measured Fluorescence measurements were optimized for samples with low activity (<1 nM/minute). For samples with higher activity, repeat measurements were made with the serum volume reduced from 60 μl to 10 μl. Rates measured in the presence of the 0.2 mM ADH inhibitors. 4-MeP or 4-PeP, were made by adding 50 μl of 12 mM inhibitor to the cuvette prior to the assay buffer, and the reaction was carried out as above.
(§5) The rates of aldehyde reduction, determined as initial velocities (V) and expressed in units of nM/minute, were calculated according to: [formula] where the quantity in parentheses is the slope of the linear fluorescence increase calculated from the quantities Ft and FO, the fluorescence at time t and at the beginning of the reaction, respectively. Cst is the concentration of the product used as a standard added to the cuvette after the initial rate had been measured and Fst is the fluorescence intensity of the added product
Additionally the reaction rates for these isozymes were compared to those measured by the standard assay for ethanol oxidation (see part 7 above) at pH 10.0 the optimum for oxidation of ethanol by ADH. The rate of IA reduction for all Class I isozymes except the β1 β1 form is 1.5- to 4-fold faster than that of ethanol oxidation as measured by the conventional ethanol oxidation assay. […] Table III illustrates that IIA is an excellent substrate for Class II (.eta.) ADH, with a rate of IIA reduction at least 8-fold faster than that of ethanol oxidation.
The values for these constants were determined with purified Class II ADH or a mixture of purified Class I isozymes, under the fluorometric assay conditions described above in Example 1.

[2] = Stability of substrates and product solutions; assay type: physicochemical; details: for stability in stock solution: 20° C., 30 days, water:acetonitrile (70:30 v/v)
Procedure: The dilute solutions (300 μM) were prepared by diluting 1 ml of the stock solution to 10 ml with water.
Concentrations were determined spectrophotometrically using a molar absorptivity of 5700 M^-1 cm^-1 at 296 nm for IB and 1270 M^-1 cm^-1 at 330 nm for IIB.

β2 β2 ADH (Class I) = biological target: T2, β2 β2 ADH (Class I) (Homo sapiens, UniProt P00325); assay: Kinetics of enzymatic reduction of methoxynaphthaldehydes by β2β2 ADH; assay type: biochemical; details: Table IV; nm = not measurable
T2 construct: beta2 allele (ADH1B*2)
T2 sequence (P00325 2-375): as the sequence (P00325 2-375, stated change not applied) above
Procedure: as §3
All reaction mixtures (3 ml total volume) were prepared directly in 1 cm pathlength, 4 ml fluorometric cuvettes by adding 150 μl of the 300 μM substrate solution (e.g substrate IA or IIA) 100 μl of the 1 mM NADH solution (prepared as in part 5 above) and 2.69 ml of assay buffer (0.1M phosphate, pH 7.6). […]
as §2
The rates of aldehyde reduction, determined as initial velocities (V) and expressed in units of nM/minute, were calculated according to: [formula] where the quantity in parentheses is the slope of the linear fluorescence increase calculated from the quantities Ft and FO, the fluorescence at time t and at the beginning of the reaction, respectively. […]

Class II (π) ADH = Class II (π) ADH (Homo sapiens, UniProt P08319); assay: Kinetics of enzymatic reduction of methoxynaphthaldehydes by Class II ADH; assay type: biochemical; details: for v/v (EtOH): rate relative to ethanol oxidation at pH 10.0
Class II (π) ADH, sequence (P08319 whole entry): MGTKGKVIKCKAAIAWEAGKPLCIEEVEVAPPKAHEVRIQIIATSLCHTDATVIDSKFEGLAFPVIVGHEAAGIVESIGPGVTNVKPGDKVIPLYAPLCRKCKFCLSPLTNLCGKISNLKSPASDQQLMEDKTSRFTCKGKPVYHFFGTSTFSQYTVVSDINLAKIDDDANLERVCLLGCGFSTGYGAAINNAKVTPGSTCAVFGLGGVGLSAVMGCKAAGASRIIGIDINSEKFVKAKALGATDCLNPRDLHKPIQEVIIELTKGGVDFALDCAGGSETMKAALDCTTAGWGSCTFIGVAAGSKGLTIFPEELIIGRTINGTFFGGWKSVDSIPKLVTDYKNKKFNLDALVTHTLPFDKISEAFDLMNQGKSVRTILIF

Class III (.chi.) ADH = Class III (.chi.) ADH (Homo sapiens, UniProt P11766); assay: Kinetics of enzymatic reduction of methoxynaphthaldehydes by Class III ADH; assay type: biochemical
Class III (.chi.) ADH, sequence (P11766 whole entry): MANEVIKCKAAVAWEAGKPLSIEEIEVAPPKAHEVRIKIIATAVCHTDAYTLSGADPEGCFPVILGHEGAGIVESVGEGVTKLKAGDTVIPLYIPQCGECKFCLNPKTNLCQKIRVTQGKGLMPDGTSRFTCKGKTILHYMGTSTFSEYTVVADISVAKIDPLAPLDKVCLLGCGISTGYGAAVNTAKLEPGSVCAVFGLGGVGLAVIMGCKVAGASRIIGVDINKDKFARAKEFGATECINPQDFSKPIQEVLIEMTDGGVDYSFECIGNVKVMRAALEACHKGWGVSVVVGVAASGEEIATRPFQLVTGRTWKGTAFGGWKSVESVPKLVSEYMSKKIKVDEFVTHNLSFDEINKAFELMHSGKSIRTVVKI

[3] = biological target: ADH in human serum (Class II) (Homo sapiens, UniProt P08319); assay: Fluorometric measurement of serum ADH activity with substrate IIA; assay type: biochemical
ADH in human serum (Class II), sequence (P08319 whole entry): as the sequence (P08319 whole entry) above
Procedure: as §1
as §4, with “For samples with higher activity, repeat measurements were made with the serum volume reduced from 60 μl to 10 μl.” left out, “4-MeP or 4-PeP, were made by adding 50 μl of 12 mM inhibitor to the cuvette prior to the assay buffer, and the reaction was carried out as above.” left out
as §5
Using the instrumentation described in Example 1, part 7, reaction rates as low as 6.5 nM/minute for IA and 25 nM/minute for IIA were reproducible. The limits of detection, i.e.. the point at which the fluorescence change after eight minutes becomes twice the noise level, were 1 nM/minute and 5 nM/minute for the two substrates, IA and IIA, respectively. […]

[4] = pH 7.0, 50 μM NADH, spectrophotometric

COc1ccc(C=O)c2ccccc12 [IA, 4-methoxy-1-naphthaldehyde]
Average rate [1]: 144.8 nM/min
v/v (EtOH) (β1 γ2 ADH (Class I)): 3.4
kcat (Class I ADH): 5.83 s⁻¹
Km (Class I ADH): 0.6 to 8.5 µM
a: ratio of specific rates for Class I to Class II ADH with IA as substrate (Class I ADH; fluorometric assay conditions): 0.022
stability in stock solution [2]: spectral changes were not observed
stability in crystalline state [2]: stable
stability of dilute aqueous solutions [2]: much less stable
Km (β2 β2 ADH (Class I)): nM
kcat (Class II (π) ADH; [4]): 0.833 s⁻¹
v/v (EtOH) (Class II (π) ADH): 0.20

COc1ccc2cc(C=O)ccc2c1 [IIA, 6-methoxy-2-naphthaldehyde]
v/v (EtOH) (β1 γ2 ADH (Class I)): 1.6
rate of reduction versus ethanol oxidation (Class I ADH; Class I isozymes, words): generally slower, but still comparable
kcat (Class I ADH): 1.83 s⁻¹
Km (Class I ADH): 0.4 to 11.5 µM
d: ratio of specific rates for Class I ADH with IIA and IA as substrates (Class I ADH; average value): 0.27
ratio of specific rates for Class I to Class II ADH with IIA as substrate (Class I ADH; average value): 0.27
stability in stock solution [2]: spectral changes were not observed
stability in crystalline state [2]: stable
stability of dilute aqueous solutions [2]: much less stable
Km (Class III (.chi.) ADH; Class III ADH): > 500 µM
Km (Class III (.chi.) ADH; pH 7.0, 50 μM NADH, NR = no reaction detected): > 500 µM
substrate quality for Class III ADH (Class III (.chi.) ADH; words): very poor substrate
limit of detection ([3]; fluorescence change twice noise after eight minutes): 5 nM/min
lowest reproducible reaction rate ([3]; serum): 25 nM/min
serum activity for IIA ([3]; thirty of thirty six hospital patient sera, average): 15 ± 7 nM/min
kcat for Class II relative to Class I isozymes (Class II (π) ADH): 10 fold
kcat (Class II (π) ADH; Class II): 25 s⁻¹
rate of reduction relative to ethanol oxidation (Class II (π) ADH; Class II ADH): at least 8 fold
kcat (Class II (π) ADH; [4]): 25 s⁻¹
v/v (EtOH) (Class II (π) ADH): 8.0
